{"source": "patent US8729047B2", "about": "“Compositions for inhibiting redox-sensitive GTPases” (Board of Regents, The University of Texas System, priority 2010, dated 2014)", "key": {"Rac1": {"biological_target": "Rac1 (Homo sapiens, UniProt P63000)", "experiment": "Co-IP ESI-MS of thioguanine nucleotide disulfide adduct in T cells", "assay_type": "cell-based", "set-up": "endogenous in cells", "conditions": "for thioguanine nucleotide-Rac1 disulfide adduct: activated T cells, FIGS. 21, 27", "protocol": "FIG. 21. Detection of 6-TGNP adduct from A7r5 and T cells. Experimental procedures using A7r5 (A and B) and T (C and D) cells, respectively, were identical to those of the experiments described in FIG. 19 and previous studies (Tiede et al. J. Clin. Invest. 111, 1133-1145 (2003); and Poppe et al. J. Immunol. 176, 640-651 (2006)). The cell extract was incubated with a monoclonal RhoA antibody (A and B) or a Rac1 antibody (C and D) coupled with resin. Resin was collected by centrifugation (5,000×g, 10 min), which was suspended in 50% methanol:0.1% formic acid. The protein portion was separated by brief centrifugation (3,000×g for 5 min), resuspended in a buffer containing 10 mM EDTA and 5 mM phosphate (pH 7.5), digested with trypsin for 10 h, and analyzed with MS. The MS peak at 1476.6 Da represents peptide-6-TGDP adduct; TC^20LLIVFSK-6-TGDP.\nFIG. 27. Detection of 8-TGNP adduct from T and A7r5 cells. […] The indicated MS peak at 1476.6 Da represents peptide-8-TGDP adduct; TC^20LLIVFSK-8-TGDP (SEQ ID NO:4). The molecular weight of the peptide-8-TGDP adduct is exactly the same as that of the peptide-6-TGDP adduct."}, "ERM": {"test_system": "ERM", "experiment": "ERM phosphorylation in activated T cells", "assay_type": "cell-based", "protocol": "FIG. 26. Determination of Rac1 activity and ERM phosphorylation. […] (A) The soluble cell extract was then used to perform Western blot analyses for Rac1 and the ERM. This cell extract also was used for the co-IP-based ESI-MS analysis (FIG. 8). (B) A Rac1 activity assay was colorimetrically determined using cell extract; the assay was performed with the Rac1 G-LISA Activation Assay Kit (Cat. No. BK125) (Denver, Colo.). To examine the level of phosphorylation of the ERM, cells were cultured in complete RPMI 1640 medium with ˜50 μCi of ^32P/mL before initiating stimulation of T cells. The collected cell extract was nutated with resin coupled with a human ERM (231C2a) antibody (Santa Cruz Biotechnology, CA) at 4° C. for 5 h. […] The immunoprecipitates were then analyzed by SDS-PAGE and autoradiographed. […] The data represented in the figure represent the mean values of triplicate measurements, and the vertical error bar indicates standard errors."}, "HME-RhoC cells [1]": {"test_system": "HME-RhoC cells", "experiment": "Matrigel invasion (cell motility) assay", "assay_type": "cell-based, human", "protocol": "FIG. 5. Determination of cell invasiveness in the presence and absence of 6-thiopurine and/or a redox agent. The top chamber of a Transwell filter (6.5 mm with 8 μm pores, Costar; Corning, N.Y.) was coated with a 10 μL aliquot of 10 mg/mL Matrigel (BD Biosciences, Bedford Mass.), and the lower chamber of the Transwell was filled with either serum-free or serum-containing media. Sample cells (e.g., 6-TG-resistant HME-RhoC cells) were prepared to resuspend cells in a serum-free medium with 0.1% BSA at a concentration of 4×10^5 cells/mL. At this point, neither 6-thiopurine nor GSNO were added to the cells. The sample cells (0.5 mL) were added to the top chamber of a Transwell filter and were incubated for 24 h at 37° C. in a 10% CO2 incubator. The Transwell filters were fixed with methanol, stained with H&E, and cells in the serum-containing samples were counted. The number of cells that had invaded the serum-free medium-containing lower chambers was used as a control background. Results are given as percent invasion over that seen in HME-RhoC cells (100%) and represent mean and standard error values from triplicate measurements.\nFIG. 11. Determination of cell invasiveness in the presence and absence of […] and/or a redox agent. […] The number of cells that had invaded the serum-free medium-containing lower chambers was used as a control background. Results are given as percent invasion over that seen in HME-RhoC cells (100%) and represent mean and standard error values from triplicate measurements.\nFIG. 14. Determination of cell invasiveness in the presence and absence of thiopurines and/or redox agents. […] Western blot analysis representing the total expression of RhoC in these cells also is shown. (B) Experimental procedures for the determination of the time-dependent motility of cells using the QCM Cell Invasion Assay kit in the presence and absence of 6-TG and DETA/NO are described elsewhere herein.\nThe top chamber of a Transwell filter (6.5 mm with 8 μm pores, Costar; Corning, N.Y.) was coated with a 10 μL aliquot of 10 mg/mL Matrigel, and the lower chamber of the Transwell was filled with either serum-free or serum-containing media. Sample cells were prepared to resuspend cells in a serum-free medium with 0.1% BSA at a concentration of 4×10^5 cells/mL. […] The Transwell filters were fixed with methanol, stained with haematoxylin and eosin, and cells in the serum-containing samples were counted. The number of cells that had invaded the serum-free, medium-containing lower chambers was used as a control background."}, "HME-RhoC cells [2]": {"test_system": "HME-RhoC cells", "experiment": "Apoptosis / cell population of cells treated with thiopurines", "assay_type": "cell-based, human", "conditions": "for cells that underwent apoptosis within a day: thiopurine 1 μM", "description": "RhoC-overexpressed mammary epithelium (HME-RhoC) cells were used to examine the effect of 6-TG and/or a redox agent on RhoC."}, "HME-RhoC cells [3]": {"test_system": "HME-RhoC cells", "experiment": "MTT cell viability and caspase-3/8 assays", "assay_type": "cell-based, human", "excerpt": "FIG. 25. […] (B) Caspase-3/8 assay: the apoptotic activity of sample cells treated with the apoptotic inducer was set to be 100%, and other results were then expressed as normalized values against the mean value associated with the treatment with the apoptotic inducer. For both (A) and (B), all values represent the mean values and standard error values from triplicate measurements."}}}
{"smiles": "Nc1nc2nc[nH]c2c(=S)[nH]1", "note": "[6-TG, 6-thioguanine]", "values": [{"measurement": "MS peak representing 6-TGNP-Rac1 adduct", "setting": "Rac1; T cells, both 6-TG and NO, intensity not truly quantitative", "result": "increased"}, {"measurement": "thioguanine nucleotide-Rac1 disulfide adduct", "setting": "Rac1", "result": "has been identified"}, {"measurement": "blockage of ERM dephosphorylation", "setting": "ERM; 6-TG plus DETA/NO 10 μM", "result": "increases the blockage of the dephosphorylated form of ERM"}, {"measurement": "ERM phosphorylation", "setting": "ERM; 6-TG, after three days, FIG. 26B", "result": "large portion of ERM in T cells was observed to have been phosphorylated"}, {"measurement": "cell motility", "setting": "HME-RhoC cells [1]; 6-TG 1 μM alone, three or more consecutive days, FIG. 14A", "result": "gradual but significant diminution of cell motility"}, {"measurement": "invasive cell motility", "setting": "HME-RhoC cells [1]; 6-TG 1 μM with DETA/NO (or GSNO) 10 μM, three days, FIG. 14A", "result": "complete termination of the invasive cell motility"}, {"measurement": "cells persistently resisting additional treatments (of the initial cells)", "setting": "HME-RhoC cells [2]; 6-TG 1 μM", "result": "20%-25%"}, {"measurement": "cells that underwent apoptosis within a day", "setting": "HME-RhoC cells [2]", "result": "~80", "unit": "%"}, {"measurement": "apoptotic effect (caspase, FIG. 25B)", "setting": "HME-RhoC cells [3]; 6-TG", "result": "minimal"}, {"measurement": "viability and caspase activity", "setting": "HME-RhoC cells [3]; 6-TG and DETA/NO, FIG. 25", "result": "minimally affected"}, {"measurement": "cell viability (MTT, FIG. 25A)", "setting": "HME-RhoC cells [3]; 6-TG for 3 days", "result": "minimally affected"}]}
{"smiles": "Nc1nc2[nH]c(S)nc2c(=O)[nH]1", "note": "[8-TG, 2-amino-8-mercapto-1H-purin-6(9H)-one]", "values": [{"measurement": "thioguanine nucleotide-Rac1 disulfide adduct", "setting": "Rac1", "result": "biologically inactive 8-TGNP-Rac1 disulfide adduct"}, {"measurement": "screen of 6-TP isomers on ERM dephosphorylation", "setting": "ERM; not shown", "result": "blocks the dephosphorylation of ERM"}, {"measurement": "invasive mobility after 8-TG followed by NO donor", "setting": "HME-RhoC cells [1]; 8-TG for a week, then DETA/NO or GSNO 10 μM every 20 or 8 h", "result": "virtually all of the invasive mobility of HME-RhoC cells was immediately terminated"}, {"measurement": "termination of RhoC-mediated cell invasiveness, 8-TG with redox agent versus 6-TG-redox combination", "setting": "HME-RhoC cells [1]; in conjunction with a redox agent", "result": "much more effective than a 6-TG-redox combination"}, {"measurement": "screen of thiopurine analogs on invasive cell mobility", "setting": "HME-RhoC cells [1]; in the presence of NO donor DETA/NO", "result": "most effectively inhibits"}, {"measurement": "decline of invasive cell mobility over 5 days of continuous treatment", "setting": "HME-RhoC cells [1]; only 8-TG 1 μM, FIG. 11", "result": "~60", "unit": "%"}, {"measurement": "decline of invasive cell mobility within a day", "setting": "HME-RhoC cells [1]; only 8-TG 1 μM, FIG. 11", "result": "~10", "unit": "%"}, {"measurement": "delayed minor apoptosis over the course of a week of treatment", "setting": "HME-RhoC cells [2]; 8-TG 1 μM", "result": "~5", "unit": "%"}, {"measurement": "cells that underwent apoptosis within a day", "setting": "HME-RhoC cells [2]", "result": "less than 5%"}, {"measurement": "viability of cells treated with 8-TG-redox agent", "setting": "HME-RhoC cells [3]; 8-TG for a week followed by NO donor", "result": "almost the same as that of the untreated HME-RhoC cells"}]}
